For the compound `Cc1nc2ccccc2c(=O)n1CCCCNc1ccc(SC(C)(C)C(=O)O)cc1` [Example 14, 2-Methyl-2-{4-[4-(2-methyl-4-oxo-4H-quinazolin-3-yl)-butylamino]-phenylsulfanyl}-propionic acid], the melting point is 100 to 102 °C. Compound `CCCc1nn(CC)c2c(=O)n(CCNc3ccc(SC(C)(C)C(=O)OCC)cc3)c(CC)nc12` [Example 47, 2-{4-[2-(1,5-Diethyl-7-oxo-3-propyl-1,7-dihydro-pyrazolo[4,3-d]pyrimidin-6-yl)-ethylamino]-phenylsulfanyl}-2-methyl-propionic acid ethyl ester] returned a melting point of 85 to 87 °C. `CCCc1nn(C)c2c(=O)n(CCOc3ccc(OC4(C(=O)OCC)CCC4)cc3)c(C)nc12` [Example 90, 1-{4-[2-(1,5-Dimethyl-7-oxo-3-propyl-1,7-dihydro-pyrazolo[4,3-d]pyrimidin-6-yl)-ethoxy]-phenoxy}-cyclobutanecarboxylic acid ethyl ester]: the melting point is 132 to 134 °C.

`CCc1nc2ccccc2c(=O)n1CCCNc1ccc(SC(C)(C)C(=O)O)cc1` [Example 10, 2-{4-[3-(2-Ethyl-4-oxo-4H-quinazolin-3-yl)-propylamino]-phenylsulfanyl}-2-methyl-propionic acid] displayed a melting point of 60 to 62 °C.

Take `CCOC(=O)C(C)(C)Sc1ccc(OCCn2c(CC)nc3ccccc3c2=O)cc1` [Example 33, 2-{4-[2-(2-Ethyl-4-oxo-4H-quinazolin-3-yl)-ethoxy]-phenylsulfanyl}-2-methyl-propionic acid ethyl ester]: the melting point is 120 to 122 °C.

`CCCc1nn(C)c2c(=O)n(CCCOc3ccc(SC(C)(C)C(=O)OCC)cc3)c(C)nc12` [Example 35, 2-{4-[3-(1,5-Dimethyl-7-oxo-3-propyl-1,7-dihydro-pyrazolo[4,3-d]pyrimidin-6-yl)-propoxy]-phenylsulfanyl}-2-methyl-propionic acid ethyl ester] registered a melting point of 52 to 54 °C. For `CCCc1nn(CC)c2c(=O)n(CCNc3ccc(SC(C)(C)C(=O)O)cc3)c(CC)nc12` [Example 48, 2-{4-[2-(1,5-Diethyl-7-oxo-3-propyl-1,7-dihydro-pyrazolo[4,3-d]pyrimidin-6-yl)-ethylamino]-phenylsulfanyl}-2-methyl-propionic acid] the value was 143 to 145 °C. In the case of `CCCc1nn(C)c2c(=O)n(CCOc3cc(O[C@@](C)(CC)C(=O)O)ccc3Cl)c(C)nc12` [Example 106, S-(−)-2-{4-Chloro-3-[2-(1,5-dimethyl-7-oxo-3-propyl-1,7-dihydro-pyrazolo[4,3-d]pyrimidin-6-yl)-ethoxy]-phenoxy}-2-methyl-butyric acid], the melting point is 99 to 100 °C. Turning to `CCCc1nn(C)c2c(=O)n(CCCc3cccc(OC(C)(CC)C(=O)O)c3)c(C)nc12` (stereo not shown) [Example 87, 2-{3-[3-(1,5-Dimethyl-7-oxo-3-propyl-1,7-dihydro-pyrazolo[4,3-d]pyrimidin-6-yl)-propyl]-phenoxy}-2-methyl-butyric acid], the melting point fell in the range of 136 to 138 °C. For the compound `CCCc1nc2ccccc2c(=O)n1CCNc1ccc(SC(C)(C)C(=O)O)cc1` [Example 6, 2-Methyl-2-{4-[2-(4-oxo-2-propyl-4H-quinazolin-3-yl)-ethylamino]-phenylsulfanyl}-propionic acid], the melting point is 162 to 164 °C.

The compound `CCCc1nn(C)c2c(=O)n(CCOc3ccc(NC(C)C(=O)OCC)cc3)c(CC)nc12` (stereo not shown) [Example 19, 2-{4-[2-(5-Ethyl-1-methyl-7-oxo-3-propyl-1,7-dihydro-pyrazolo[4,3-d]pyrimidin-6-yl)-ethoxy]-phenylamino}-propionic acid ethyl ester] came in with a melting point of 104 to 108 °C.

For `CCCc1nn(CC)c2c(=O)n(CCCOc3ccc(SC(C)(C)C(=O)O)cc3)c(CC)nc12` [Example 30, 2-{4-[3-(1,5-Diethyl-7-oxo-3-propyl-1,7-dihydro-pyrazolo[4,3-d]pyrimidin-6-yl)-propoxy]-phenylsulfanyl}-2-methyl-propionic acid], the melting point was 96 to 98 °C. In turn, `Cc1nc2ccccc2c(=O)n1CCCNc1ccc(SC(C)(C)C(=O)O)cc1` [Example 8, 2-Methyl-2-{4-[3-(2-methyl-4-oxo-4H-quinazolin-3-yl)-propylamino]-phenylsulfanyl}-propionic acid] registered a melting point of 162 to 164 °C. `CCCc1nn(C)c2c(=O)n(CCOc3ccc(SC(C)(C)C(=O)O)cc3)c(CC)nc12` [Example 44, 2-{4-[2-(5-Ethyl-1-methyl-7-oxo-3-propyl-1,7-dihydro-pyrazolo[4,3-d]pyrimidin-6-yl)-ethoxy]-phenylsulfanyl}-2-methyl-propionic acid] returned a melting point of 104 to 106 °C.

Turning to `CCCc1nn(C)c2c(=O)n(CCOc3ccc(OC(C)(C)C(=O)OCC)cc3)c(C)nc12` [Example 59, 2-{4-[2-(1,5-Dimethyl-7-oxo-3-propyl-1,7-dihydro-pyrazolo[4,3-d]pyrimidin-6-yl)-ethoxy]-phenoxy}-2-methyl-propionic acid ethyl ester], the melting point fell in the range of 98 to 100 °C. For `Cc1nc2ccccc2c(=O)n1CCCOc1ccc(SC(C)(C)C(=O)O)cc1` [Example 26, 2-Methyl-2-{4-[3-(2-methyl-4-oxo-4H-quinazolin-3-yl)-propoxy]-phenylsulfanyl}-propionic acid] the value was 144 to 146 °C. `CCOC(=O)C(C)(C)Sc1ccc(OCCn2c(C)nc3ccccc3c2=O)cc1` [Example 21, 2-Methyl-2-{4-[2-(2-methyl-4-oxo-4H-quinazolin-3-yl)-ethoxy]-phenylsulfanyl}-propionic acid ethyl ester] displayed a melting point of 114 to 116 °C. Turning to `CCC(C)(Sc1ccc(OCCCn2c(C)nc3ccccc3c2=O)cc1)C(=O)O` (stereo not shown) [Example 56, 2-Methyl-2-{4-[3-(2-methyl-4-oxo-4H-quinazolin-3-yl)-propoxy]-phenylsulfanyl}-butyric acid], the melting point lay within 130 to 132 °C. The compound `CCCc1nn(C)c2c(=O)n(CCOc3ccc(OC(C)(C)C(=O)OCC)cc3)c(CC)nc12` [Example 69, 2-{4-[2-(5-Ethyl-1-methyl-7-oxo-3-propyl-1,7-dihydro-pyrazolo[4,3-d]pyrimidin-6-yl)-ethoxy]-phenoxy}-2-methyl-propionic acid ethyl ester] showed a melting point of 66 to 68 °C. Regarding `CCCc1nn(C)c2c(=O)n(CCOc3ccc(SC(C)(C)C(=O)O)cc3)c(C)nc12` [Example 32, 2-{4-[2-(1,5-Dimethyl-7-oxo-3-propyl-1,7-dihydro-pyrazolo[4,3-d]pyrimidin-6-yl)-ethoxy]-phenylsulfanyl}-2-methyl-propionic acid], the melting point lay within 182 to 184 °C. `CCCc1nn(C)c2c(=O)n(CCCOc3ccc(OC(C)(C)C(=O)O)cc3)c(C)nc12` [Example 66, 2-{4-[3-(1,5-Dimethyl-7-oxo-3-propyl-1,7-dihydro-pyrazolo[4,3-d]pyrimidin-6-yl)-propoxy]-phenoxy}-2-methyl-propionic acid]: the melting point was 158 to 160 °C. For the compound `CCCc1nn(C)c2c(=O)n(CCOc3ccc(OC(C)(C)C(=O)O)cc3)c(CC)nc12` [Example 70, 2-{4-[2-(5-Ethyl-1-methyl-7-oxo-3-propyl-1,7-dihydro-pyrazolo[4,3-d]pyrimidin-6-yl)-ethoxy]-phenoxy}-2-methyl-propionic acid], the melting point fell in the range of 108 to 110 °C. Regarding `Cc1nc2ccccc2c(=O)n1CCOc1ccc(SC(C)(C)C(=O)O)cc1` [Example 22, 2-Methyl-2-{4-[2-(2-methyl-4-oxo-4H-quinazolin-3-yl)-ethoxy]-phenylsulfanyl}-propionic acid], the melting point lay in the range of 188 to 190 °C. `CCCc1nn(C)c2c(=O)n(CCNc3ccc(OC(C)(C)C(=O)O)cc3)c(C)nc12` [Example 62, 2-{4-[2-(1,5-Dimethyl-7-oxo-3-propyl-1,7-dihydro-pyrazolo[4,3-d]pyrimidin-6-yl)-ethylamino]-phenoxy}-2-methyl-propionic acid] had a melting point of 88 to 90 °C. Turning to `CCCc1nn(C)c2c(=O)n(CCNc3ccc(SC(C)(C)C(=O)O)cc3)c(CC)nc12` [Example 42, 2-{4-[2-(5-Ethyl-1-methyl-7-oxo-3-propyl-1,7-dihydro-pyrazolo[4,3-d]pyrimidin-6-yl)-ethylamino]-phenylsulfanyl}-2-methyl-propionic acid], the melting point was 187 to 189 °C. For `CCCc1nn(CC)c2c(=O)n(CCOc3ccc(SC(C)(CC)C(=O)O)cc3)c(C)nc12` (stereo not shown) [Example 54, 2-{4-[2-(1-Ethyl-5-methyl-7-oxo-3-propyl-1,7-dihydro-pyrazolo[4,3-d]pyrimidin-6-yl)-ethoxy]-phenylsulfanyl}-2-methyl-butyric acid] the value was 155 to 157 °C; for `CCCc1nn(CC)c2c(=O)n(CCOc3ccc(SC(C)(C)C(=O)OCC)cc3)c(C)nc12` [Example 51, 2-{4-[2-(1-Ethyl-5-methyl-7-oxo-3-propyl-1,7-dihydro-pyrazolo[4,3-d]pyrimidin-6-yl)-ethoxy]-phenylsulfanyl}-2-methyl-propionic acid ethyl ester], 85 to 87 °C; for `CCCc1nn(C)c2c(=O)n(CCNc3ccc(OC(C)(C)C(=O)O)cc3)c(CC)nc12` [Example 76, 2-{4-[2-(5-Ethyl-1-methyl-7-oxo-3-propyl-1,7-dihydro-pyrazolo[4,3-d]pyrimidin-6-yl)-ethylamino]-phenoxy}-2-methyl-propionic acid], 136 to 138 °C. For `CCCc1nn(C)c2c(=O)n(CCOc3ccc(OC(C)(C)C(=O)O)cc3)c(C)nc12` [Example 60, 2-{4-[2-(1,5-Dimethyl-7-oxo-3-propyl-1,7-dihydro-pyrazolo[4,3-d]pyrimidin-6-yl)-ethoxy]-phenoxy}-2-methyl-propionic acid] the value was 146 to 148 °C.

Regarding `Cc1nc2ccccc2c(=O)n1CCNc1ccc(SC(C)(C)C(=O)O)cc1` [Example 2, 2-Methyl-2-{4-[2-(2-methyl-4-oxo-4H-quinazolin-3-yl)-ethylamino]-phenylsulfanyl}-propionic acid], the melting point lay within 226 to 228 °C. As for `CCCc1nc2ccccc2c(=O)n1CCCCNc1ccc(SC(C)(C)C(=O)O)cc1` [Example 18, 2-Methyl-2-{4-[4-(4-oxo-2-propyl-4H-quinazolin-3-yl)-butylamino]-phenylsulfanyl}-propionic acid], the melting point is 100 to 104 °C.

One may read the melting point as the temperature of the solid-liquid transition.

(Values after patent US20080114005A1, “Fibrate Compounds Having Ppar Agonist Activity” (Dr. Reddy's Laboratories Limited, priority 2004, published 2008).)
